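Tested at 5 concentrations; 48 h exposure; 96-well plates; endpoints linearly interpolated, else capped at highest concentration. GI50: concentration for 50% inhibition of growth. TGI: concentration producing complete growth inhibition.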
Tests used:
Assay in all cases: growth of human tumour cells (NCI), 48 h
HCT-15 colon = tested on: HCT-15 colon
SNB-75 CNS = tested on: SNB-75 CNS
UACC-257 melanoma = tested on: UACC-257 melanoma
SW-620 colon = tested on: SW-620 colon
KM12 colon = tested on: KM12 colon
SK-MEL-28 melanoma = tested on: SK-MEL-28 melanoma
IGROV1 ovarian = tested on: IGROV1 ovarian
OVCAR-5 ovarian = tested on: OVCAR-5 ovarian
HL-60(TB) leukemia = tested on: HL-60(TB) leukemia

| Compound | TGI (HCT-15 colon) [µM] | TGI (SNB-75 CNS) [µM] | TGI (UACC-257 melanoma) [µM] | TGI (SW-620 colon) [µM] | TGI (KM12 colon) [µM] | TGI (SK-MEL-28 melanoma) [µM] | TGI (IGROV1 ovarian) [µM] | TGI (OVCAR-5 ovarian) [µM] | TGI (HL-60(TB) leukemia) [µM] | GI50 (UACC-257 melanoma) [µM] |
| --- | --- | --- | --- | --- | --- | --- | --- | --- | --- | --- |
| COc1ccc2c(OC)c3ccoc3nc2c1O | > 100 | > 100 | > 100 | > 100 | > 100 | > 100 | > 100 | > 100 | – | – |
| CC(=NNC(=S)Nc1ccccc1C)c1cccc(C(C)=NNC(=S)Nc2ccccc2C)n1 | > 100 | – | > 100 | > 100 | > 100 | > 100 | > 100 | > 100 | > 100 | – |
| O=C1/C(=C/c2cccc([N+](=O)[O-])c2)COc2ccccc21 | 3.11 | > 61.5 | > 64.7 | 2.09 | 6.29 | 7.42 | > 19.9 | > 100 | 5.59 | – |
| C1=CCN(c2ccccc2)CC1 | 47.1 | > 100 | > 100 | 47.3 | > 100 | 73.9 | 96.3 | > 100 | 90.1 | – |
| CCN(CC)CCCCC1CCN(CC(=O)N2c3ccccc3NC(=O)c3ccccc32)CC1 | – | > 100 | > 100 | > 100 | > 100 | > 100 | – | – | > 100 | – |
| Nc1ccc(N=Nc2ccc(/C=C/c3ccc(N=Nc4ccc(N)c5ccc(S(=O)(=O)O)cc45)cc3S(=O)(=O)O)c(S(=O)(=O)O)c2)c2cc(S(=O)(=O)O)ccc12 | > 100 | > 100 | > 100 | > 100 | > 100 | > 100 | > 100 | > 100 | > 100 | – |
| CC(=O)OC1[C@H]2c3cc4c(cc3CN3CCC(C[C@@H]1OC(C)=O)C23)OCO4 (some centres not stated) | > 75 | > 75 | > 75 | > 75 | > 75 | > 75 | > 75 | – | > 75 | – |
| COc1cc(C2c3cccc4cccc(c34)C3CCC(=O)N32)cc(O)c1O (configuration not stated) | > 50 | > 50 | > 50 | > 50 | > 50 | > 50 | > 50 | > 50 | > 50 | – |
| CSc1nc(C)cc(Nc2ccc(O)c(CN3CCCCC3)c2)n1 | > 100 | > 100 | – | > 100 | > 100 | 79.6 | > 100 | > 100 | – | – |
| O=c1c2cc(I)ccc2nc(-c2cccs2)n1Nc1ccccc1 | > 100 | – | > 100 | > 100 | > 100 | > 100 | > 100 | > 100 | > 100 | 32.3 |
